Experimental data from patent US12624018B1, “Inhibitors of RIPK2 and medical uses thereof” (Odyssey Therapeutics, Inc., priority 2022, dated 2026).
pIC50: −log10 of the molar value.

These compounds were tested against T1, RIPK2 enzyme (Homo sapiens, UniProt O43353) (assay: RIPK2 inhibition (ADP-Glo Kinase Assay)). Conditions: RIPK2 5 nM, ATP 150 μM, MBP substrate, read-out: RIPK2 IC50.
T1 construct: purchased Carna 09-128
T1 sequence (O43353 1-299 limits assumed): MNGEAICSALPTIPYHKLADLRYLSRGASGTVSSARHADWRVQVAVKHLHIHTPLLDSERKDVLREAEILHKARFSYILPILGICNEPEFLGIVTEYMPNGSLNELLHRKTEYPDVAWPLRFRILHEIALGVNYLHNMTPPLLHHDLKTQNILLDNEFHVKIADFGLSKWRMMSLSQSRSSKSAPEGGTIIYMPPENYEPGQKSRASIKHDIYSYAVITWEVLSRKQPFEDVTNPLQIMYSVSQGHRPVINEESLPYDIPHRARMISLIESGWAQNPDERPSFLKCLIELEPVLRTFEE
Type: biochemical
How it was run: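 Human RIPK2 (5 nM) preincubated with compound 30 min at room temperature in 50 mM HEPES pH 7.5, 10 mM MgCl2, 2 mM DTT, 1 mM EGTA, 0.01% Brij-35, 0.05% BSA; native swine MBP as substrate. ADP formed quantified by ADP-Glo luminescence; percent inhibition relative to DMSO and no-enzyme controls.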
A pIC50 of 7.68 was found for `CN(C)C(=O)c1ccc2ncnc(Oc3ccc(CC(=O)Nc4cnn(C(C)(C)C)c4)c(F)c3)c2c1` [Compound 26, 4-(4-(2-((1-(tert-butyl)-1H-pyrazol-4-yl)amino)-2-oxoethyl)-3-fluorophenoxy)-N,N-dimethylquinazoline-6-carboxamide] in this work. A pIC50 of 7.72 was found for `CC(C)(C)n1cc(NC(=O)Cc2ccc(Oc3ncnc4ccc(C(=O)N5CCCC5)cc34)cc2F)cn1` [Compound 27, N-(1-(tert-butyl)-1H-pyrazol-4-yl)-2-(2-fluoro-4-((6-(pyrrolidine-1-carbonyl)quinazolin-4-yl)oxy)phenyl) acetamide] in this work. A pIC50 of 7.90 was found for `COc1ccc2ncnc(Oc3ccc(CC(=O)Nc4cc(C(C)(C)C)ccn4)c(F)c3)c2c1` [Compound 28, N-(4-(tert-butyl)pyridin-2-yl)-2-(2-fluoro-4-((6-methoxy-quinazolin-4-yl)oxy)phenyl) acetamide] in this work. A pIC50 of 8.28 was found for `COc1ccc2ncnc(Oc3cnc(CC(=O)Nc4cc(C(C)(C)C)ccn4)c(F)c3)c2c1` [Compound 29, N-(4-(tert-butyl)pyridin-2-yl)-2-(3-fluoro-5-((6-methoxy-quinazolin-4-yl)oxy)pyridin-2-yl)acetamide] in this work. A pIC50 of 8.14 was found for `COc1ccc2ncnc(Oc3ccc(CC(=O)Nc4cc(C(C)(C)C)cnn4)c(F)c3)c2c1` [Compound 30, N-(5-(tert-butyl)pyridazin-3-yl)-2-(2-fluoro-4-((6-methoxy-quinazolin-4-yl)oxy)phenyl) acetamide] in this work. A pIC50 of 7.70 was found for `COc1ccc2ncnc(Oc3cnc(CC(=O)Nc4cc(C(C)(C)C)cnn4)c(F)c3)c2c1` [Compound 31, N-(5-(tert-butyl)pyridazin-3-yl)-2-(3-fluoro-5-((6-methoxy-quinazolin-4-yl)oxy)pyridin-2-yl)acetamide] in this work. A pIC50 of 7.86 was found for `COc1ccc2ncnc(Oc3ccc(CC(=O)Nc4cc(C(C)(C)C)ncn4)c(F)c3)c2c1` [Compound 32, N-(6-(tert-butyl)pyrimidin-4-yl)-2-(2-fluoro-4-((6-methoxyquinazolin-4-yl)oxy)phenyl)acetamide] in this work. A pIC50 of 7.07 was found for `COc1ccc2ncnc(Oc3cnc(CC(=O)Nc4cc(C(C)(C)C)ncn4)c(F)c3)c2c1` [Compound 33, N-(6-(tert-butyl)pyrimidin-4-yl)-2-(3-fluoro-5-((6-methoxy-quinazolin-4-yl)oxy)pyridin-2-yl)acetamide] in this work. A pIC50 of 7.48 was found for `COc1ccc2ncnc(Oc3ccc(CC(=O)Nc4cc(C5(C(F)(F)F)CC5)ccn4)c(F)c3)c2c1` [Compound 34, 2-(2-fluoro-4-((6-methoxyquinazolin-4-yl)oxy)phenyl)-N-(4-(1-(trifluoromethyl)cyclopropyl)pyridin-2-yl)acetamide] in this work. A pIC50 of 7.53 was found for `COc1ccc2ncnc(Oc3ccc(CC(=O)Nc4cc(C(C)(C)CO)ccn4)c(F)c3)c2c1` [Compound 35, 2-(2-fluoro-4-((6-methoxy-quinazolin-4-yl)oxy)phenyl)-N-(4-(1-hydroxy-2-methylpropan-2-yl)pyridin-2-yl)acetamide] in this work. A pIC50 of 8.33 was found for `CC(C)(C)n1cc(NC(=O)Cc2ccc(Oc3ccnc4ccc(P(C)(C)=O)cc34)cc2F)cn1` [Compound 36, N-(1-(tert-butyl)-1H-pyrazol-4-yl)-2-(4-((6-(dimethylphosphoryl)quinolin-4-yl)oxy)-2-fluorophenyl)acetamide] in this work. A pIC50 of 8.11 was found for `COc1ccc2ncnc(Oc3ccc(CC(=O)Nc4cc(C(C)(C)C)n(C)n4)c(F)c3)c2c1` [Compound 37, N-(5-(tert-butyl)-1-methyl-1H-pyrazol-3-yl)-2-(2-fluoro-4-((6-methoxy-quinazolin-4-yl)oxy)phenyl) acetamide] in this work. A pIC50 greater than 8.60 was found for `COc1cc2nccc(Oc3ccc(CC(=O)Nc4cnn(C(C)(C)C)c4)c(F)c3)c2cc1S(C)(=O)=O` [Compound 39, N-(1-(tert-butyl)-1H-pyrazol-4-yl)-2-(2-fluoro-4-((7-methoxy-6-(methylsulfonyl)quinolin-4-yl)oxy)phenyl)acetamide] in this work. A pIC50 greater than 8.60 was found for `Cn1nc(NC(=O)Cc2ccc(Oc3ccnc4ccc(S(C)(=O)=O)cc34)cc2F)cc1C(C)(C)C` [Compound 40, N-(5-(tert-butyl)-1-methyl-1H-pyrazol-3-yl)-2-(2-fluoro-4-((6-(methylsulfonyl)quinolin-4-yl)oxy)phenyl)acetamide] in this work. A pIC50 of 8.12 was found for `Cn1nc(NC(=O)Cc2ncc(Oc3ccnc4ccc(S(C)(=O)=O)cc34)cc2F)cc1C(C)(C)C` [Compound 41, N-(5-(tert-butyl)-1-methyl-1H-pyrazol-3-yl)-2-(3-fluoro-5-((6-(methylsulfonyl)quinolin-4-yl)oxy)pyridin-2-yl)acetamide] in this work. A pIC50 of 8.26 was found for `CC(C)(C)c1cc(NC(=O)Cc2ncc(Oc3ccnc4ccc(S(C)(=O)=O)cc34)cc2F)n[nH]1` [Compound 42, N-(5-(tert-butyl)-1H-pyrazol-3-yl)-2-(3-fluoro-5-((6-(methylsulfonyl)quinolin-4-yl)oxy)pyridin-2-yl)acetamide] in this work. A pIC50 of 7.58 was found for `C[S+]([O-])c1ccc2ncnc(Oc3ccc(CC(=O)Nc4cnn(C(C)(C)C)c4)c(F)c3)c2c1` (stereo not drawn) [Compound 44, N-(1-(tert-butyl)-1H-pyrazol-4-yl)-2-(2-fluoro-4-((6-(methylsulfinyl)quinazolin-4-yl)oxy)phenyl)acetamide] in this work. A pIC50 greater than 8.60 was found for `C[S+]([O-])c1ccc2nccc(Oc3ccc(CC(=O)Nc4cnn(C(C)(C)C)c4)c(F)c3)c2c1` (stereo not drawn) [Compound 45, N-(1-(tert-butyl)-1H-pyrazol-4-yl)-2-(2-fluoro-4-((6-(methylsulfinyl)quinolin-4-yl)oxy)phenyl)acetamide] in this work. A pIC50 greater than 8.60 was found for `CC(C)(C)n1cc(NC(=O)Cc2ccc(Oc3ccnc4ccc(S(N)(=O)=O)cc34)cc2F)cn1` [Compound 46, N-(1-(tert-butyl)-1H-pyrazol-4-yl)-2-(2-fluoro-4-((6-sulfamoylquinolin-4-yl)oxy)phenyl)acetamide] in this work. A pIC50 of 8.41 was found for `COc1ccc2ncnc(Oc3ccc(CC(=O)Nc4cnn(C(C)(C)C)c4)c(F)c3F)c2c1` [Compound 47, N-(1-(tert-butyl)-1H-pyrazol-4-yl)-2-(2,3-difluoro-4-((6-methoxy-quinazolin-4-yl)oxy)phenyl) acetamide] in this work. A pIC50 of 8.04 was found for `CCOc1ccc2nccc(Oc3cnc(CC(=O)Nc4cnn(C(C)(C)C)c4)c(F)c3)c2c1` [Compound 48, N-(1-(tert-butyl)-1H-pyrazol-4-yl)-2-(5-((6-ethoxyquinolin-4-yl)oxy)-3-fluoropyridin-2-yl)acetamide] in this work. A pIC50 of 7.73 was found for `CC(C)(C)n1cc(NC(=O)Cc2ccc(Oc3ncnc4ccc(OC5COC5)cc34)cc2F)cn1` [Compound 49, N-(1-(tert-butyl)-1H-pyrazol-4-yl)-2-(2-fluoro-4-((6-(oxetan-3-yloxy)quinazolin-4-yl)oxy)phenyl) acetamide] in this work. A pIC50 of 7.81 was found for `COCCOc1ccc2ncnc(Oc3ccc(CC(=O)Nc4cnn(C(C)(C)C)c4)c(F)c3)c2c1` [Compound 50, N-(1-(tert-butyl)-1H-pyrazol-4-yl)-2-(2-fluoro-4-((6-(2-methoxy-ethoxy)quinazolin-4-yl)oxy)phenyl) acetamide] in this work. A pIC50 of 7.73 was found for `CC(C)(C)n1cc(NC(=O)Cc2ncc(Oc3ncnc4ccc(OC5CCNCC5)cc34)cc2F)cn1` [Compound 51, N-(1-(tert-butyl)-1H-pyrazol-4-yl)-2-(3-fluoro-5-((6-(piperidin-4-yloxy)quinazolin-4-yl)oxy)pyridin-2-yl)acetamide] in this work.
